# Experimental data as given in article PMC7238120, “Strong and Selective Inhibitory Effects of the Biflavonoid Selamariscina A against CYP2C8 and CYP2C9 Enzyme Activities in Human Liver Microsomes” (Pharmaceutics, 2020).
# pIC50: −log10 of the molar value.
# Molecular target: T1, CYP2C19 (Homo sapiens, UniProt P33261)
# T1 construct: incubation mixtures containing pooled human liver microsomes (HLMs, XTreme 200, XenoTech); tissue XenoTech XTreme 200; host or cells: pooled human liver microsomes
# T1 sequence (P33261 whole entry): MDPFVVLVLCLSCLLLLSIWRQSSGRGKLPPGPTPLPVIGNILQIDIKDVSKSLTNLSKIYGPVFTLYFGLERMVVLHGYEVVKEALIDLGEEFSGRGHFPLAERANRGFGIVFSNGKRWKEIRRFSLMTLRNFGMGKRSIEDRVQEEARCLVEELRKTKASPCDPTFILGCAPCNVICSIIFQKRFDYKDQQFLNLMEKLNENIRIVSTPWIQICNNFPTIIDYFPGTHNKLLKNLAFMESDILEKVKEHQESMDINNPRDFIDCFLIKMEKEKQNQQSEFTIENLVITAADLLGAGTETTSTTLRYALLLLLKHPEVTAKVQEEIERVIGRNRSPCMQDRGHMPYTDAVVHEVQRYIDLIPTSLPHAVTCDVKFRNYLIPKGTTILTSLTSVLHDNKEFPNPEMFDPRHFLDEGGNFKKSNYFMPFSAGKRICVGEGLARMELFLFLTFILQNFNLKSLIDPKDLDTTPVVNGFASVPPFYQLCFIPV
# Assay: Inhibition of CYP2C19 (omeprazole) activity in pooled human liver microsomes
# Format: in vitro ADME
# Conditions: substrate omeprazole 20 µM; pooled HLMs; read-out: IC50, P450 2C19
# Description: The inhibitory potential of the five biflavonoids on the metabolism of nine P450 probe substrates was evaluated using previously developed methods with minor modifications. Biflavonoids were dissolved in methanol. The final concentration of methanol in the incubation mixture was 1.0% (v/v). We used these P450 probe substrates: phenacetin for CYP1A2, coumarin for CYP2A6, bupropion for CYP2B6, amodiaquine for CYP2C8, diclofenac for CYP2C9, omeprazole for CYP2C19, dextromethorphan for CYP2D6, chlorzoxazone for CYP2E1 and midazolam for CYP3A (Table 1). The incubation mixtures containing pooled human liver microsomes (HLMs, XTreme 200, XenoTech), P450 probe substrates, and inhibitor (0~20 µM) were pre-incubated at 37 °C for 5 min. The concentration range of the inhibitor varied (0, 0.002, 0.005, 0.02, 0.05, and 0.2 µM for CYP2C8; 0, 0.02, 0.05, 0.2, 0.5, and 2 µM for CYP2C9; 0, 0.5, 2, 5, 10, and 20 µM for other P450 isoforms). After pre-incubation, a reduced nicotinamide adenine dinucleotide phosphate (NADPH) generation system containing 1 unit/ml G6PDH, 1.3 mM β- nicotinamide adenine dinucleotide phosphate (β- NADP^+), 3.3 mM MgCl2, and 3.3 mM G6P was added to initiate a reaction, and further incubated for 10 min at 37 °C. The reaction was stopped by adding 50 μL of ice-cold acetonitrile containing 7 nM trimipramine (internal standard, IS). After centrifugation at 18,000 g (5 min, 4 °C), aliquots of supernatants were analyzed by LC–MS/MS (Shimadzu LCMS 8060 system, Shimadzu, Kyoto, Japan). All microsomal incubations were conducted in triplicate.
# All metabolites and the IS were separated on a Kinetex XB-C18 column (100 × 2.10 mm, 2.6 μm, 100 Å; Phenomenex, Torrance, CA, USA) and analyzed using a Shimadzu LCMS 8060 triple-quadrupole mass spectrometer coupled with a Nexera X2 ultra high-performance liquid chromatography system (Shimadzu, Kyoto, Japan) equipped with an electrospray ionization interface. The mobile phase consisted of 0.1% formic acid in water (A) and 0.1% formic acid in acetonitrile (B). The elution condition was set as 8% B (0–0.5 min), 8%→60% B (0.5–5 min), 60% B (5–6 min), 60%→8% B (6–6.1 min) and 8% B (6.1–9 min) for the analysis of metabolites of P450 probe substrates and set as 0%→40% B (0–1 min), 40%→50% B (1–5 min), 50%→0% B (5–5.1 min), and 0% B (5.1–8 min) for the analysis of metabolites of UGT probe substrates. The flow rate was 0.2 mL/min. Electrospray ionization was performed in positive-ion mode at 4000 V or in negative-ion mode at −3500 V. The optimum operating conditions were determined as follows: vaporizer temperature, 300 °C; capillary temperature, 350 °C; collision gas (argon) pressure, 1.5 mTorr. Quantitation was conducted in selected reaction monitoring (SRM) modes with the precursor-to-product ion transition for each metabolite (Table 1 and Table 2).
# We analyzed the data with Shimadzu LabSolution LC–MS software. The IC50 values were calculated by WinNonlin software (Pharsight, Mountain View, CA, USA). The type of inhibition and the apparent kinetic parameters for inhibitory activity (Ki) were determined by following several criteria: visual inspection of Dixon plots, Lineweaver–Burk double reciprocal plots, and secondary plots of Lineweaver–Burk plots versus biflavonoid concentrations, the size of the sum of squares of the residuals, Akaike Information Criteria values, the S.E. and 95% confidence interval of the parameter estimates from the nonlinear regression analysis using the WinNonlin software. The models tested included competitive, competitive partial, noncompetitive, noncompetitive partial, uncompetitive, uncompetitive partial, and mixed-type inhibition.
row,SMILES,pIC50
1,O=c1cc(-c2ccc(O)c(-c3c(O)cc(O)c4c(=O)cc(-c5ccc(O)cc5)oc34)c2)oc2cc(O)cc(O)c12 [amentoflavone],5.47
2,"CC(C)(O)c1ccccc1CC[C@@H](SCC1(CC(=O)O)CC1)c1cccc(/C=C/c2ccc3ccc(Cl)cc3n2)c1 [montelukast, reference compound]",< 4.30
3,O=C1CC(c2cc(-c3c(O)ccc4c(=O)cc(-c5ccc(O)cc5)oc34)c(O)cc2O)Oc2cc(O)cc(O)c21 (stereo not drawn) [selamariscina A],4.88

# Next, values leading:
row,pIC50,SMILES
1,5.52,O=c1cc(-c2ccc(O)cc2)oc2c(-c3c(O)cc(O)c4c(=O)cc(-c5ccc(O)cc5)oc34)c(O)cc(O)c12 [cupressuflavone]
2,5.19,O=c1cc(-c2ccc(O)c(-c3c(O)cc4oc(-c5ccc(O)cc5)cc(=O)c4c3O)c2)oc2cc(O)cc(O)c12 [robustaflavone]
3,5.30,O=c1cc(-c2ccc(O)c(-c3c(-c4ccc(O)cc4)oc4cc(O)cc(O)c4c3=O)c2)oc2cc(O)cc(O)c12 [taiwaniaflavone]
